The IC50 is the midpoint of a concentration-inhibition curve.

Series [1] deals with carrageenan-induced rat paw edema. Description: Carrageenan-induced paw edema in rats. In kind it is in vivo. Particulars: 10 mg/kg orally; for rat paw edema: after 1 h of dosing; for rat paw edema size: evaluated for 5 h, Figure 3. The text has this: The carrageenan-induced paw edema model was used to evaluate the compounds’ anti-inflammatory activity. Only carrageenan was given to the control animals. The treatment effect was tracked by observing the improvement of rat paw edema in response to drug administration. Carrageenan injections caused rat paws to grow from 0.3 cm to 0.8 cm in size.
Following in vitro testing, three compounds with the highest selectivity against COX-2 were chosen for in vivo investigations utilizing the rat paw edema assay. After subcutaneous carrageenan injection into the rodent’s paw, plasma extravasation, tissue proliferation, plasma protein release, and neutrophilic extravasation, all of which are caused by arachidonic acid digestion, produced inflammation. Following the carrageenan infusion, the main phase lasted 2 h. The following process is remodeling, which takes 5 h and begins at the 3rd h. The main stage is distinguished by the appearance of histamine and serotonin. The development of prostaglandins, proteases, and lysosomes causes the second stage of edema. Adult male albino rats weighing 120–150 g were divided into seven groups, each with seven rats, and kept at 25 °C with a 12-h light/dark cycle. Subplantar injection of 0.2 mL of 1% carrageenan solution in 0.9 percent saline into the right hind paw of rats was used to induce swelling and inflammation. To determine the inflammation generated by carrageenan, the Vernier Caliper was used to measure the thickness of rat paws before and after injection. […] Paw edema was measured at 0, 0.5, 1, 2, 3, 4, and 5 h after the drug was administered. The edema inhibition was calculated by calculating the difference in thicknesses between the treated and control groups.

Series [2] relates to rat paw. Kind of series: Histopathological examination of rat paw (H&E, Masson's trichrome). In kind it is in vivo. The note with it: carrageenan-treated rats. The method, then: The rats’ paws were collected and washed in a saline solution after the end of rat paw experiment. Specimens were fixed in 10% natural formalin for 2 days before being washed overnight with running water. The cleaned samples were dehydrated in ethyl alcohol at increasing percentages, starting with 70% and ending with absolute alcohol. The samples were cleaned by immersing them in xylol for 2 h. For 3 h at 37 °C, the cleared samples were placed in a sealed jar containing 50% paraffin in xylol. The samples were then soaked in melting paraffin for 2 h at 48 °C before being blocked in hard paraffin and sliced into 5-micron slices. The sections were stained with hematoxylin and eosin (H&E) and Masson’s trichrome. Sections were mounted with Canada balsam and covered with a coverslip in preparation for histological examination.

Series [3] deals with rat stomach. Kind of series: Histopathological examination of rat stomach / ulcerogenic effect. Particulars: single dose 20 mg/kg orally. The format is in vivo. The method, then:
Compounds 1–3 were examined for ulcerogenic effects in the rat stomach after showing anti-inflammatory advantages in a rat paw test. Rats were deprived for 24 h at 25 °C with a 12 h light/dark cycle. Indomethacin was used as a control. All compounds were given in a single dose of 20 mg/kg orally. After 24 h, the rats were slaughtered, and their stomachs were removed and washed with normal saline. Binocular magnification was used to inspect each group’s stomachs for the existence of a gastric lesion on the mucosa. Following that, the stomachs were kept in 10% w/v formalin for histological investigation, as previously described.

The target in series [4] is T1, COX-2 (Homo sapiens, UniProt P35354).
T1 construct: purchased Cayman Chemical (Ann Arbor, MI, USA)
T1 sequence (P35354 18-604): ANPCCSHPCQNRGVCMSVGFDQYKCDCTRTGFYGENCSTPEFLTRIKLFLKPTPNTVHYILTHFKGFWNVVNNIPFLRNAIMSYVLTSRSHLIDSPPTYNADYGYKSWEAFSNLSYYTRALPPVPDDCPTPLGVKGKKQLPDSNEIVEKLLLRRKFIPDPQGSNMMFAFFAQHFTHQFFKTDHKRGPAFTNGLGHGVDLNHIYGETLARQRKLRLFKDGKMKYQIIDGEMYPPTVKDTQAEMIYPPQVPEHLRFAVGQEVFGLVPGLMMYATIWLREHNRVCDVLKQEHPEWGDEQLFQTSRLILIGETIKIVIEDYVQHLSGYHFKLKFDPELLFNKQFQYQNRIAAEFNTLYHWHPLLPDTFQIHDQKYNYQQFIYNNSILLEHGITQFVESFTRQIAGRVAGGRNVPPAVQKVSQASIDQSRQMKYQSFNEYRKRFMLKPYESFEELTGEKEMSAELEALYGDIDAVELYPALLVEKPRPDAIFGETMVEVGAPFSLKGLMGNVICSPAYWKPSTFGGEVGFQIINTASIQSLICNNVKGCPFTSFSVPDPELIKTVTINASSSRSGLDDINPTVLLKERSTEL
Kind of series: COX-2 inhibitor screening assay kit (Cayman). Particulars: for IC50: three separate experiments. In kind it is biochemical. The method, then: The test chemicals’ capacity to inhibit the conversion of arachidonic acid to prostaglandin was determined. In test tubes, 25 mM Tris–HCl, pH 8.0, containing 5 mM EDTA, phenol, and 1 mM hematin, was added. The test compounds were dissolved in dimethyl sulfoxide and added in concentrations ranging from 0.005–200 µM. Dimethyl sulfoxide alone was applied to control test containers. COX-1 or COX-2 enzymes were added to test tubes and preincubated for 10 min at 37 °C. The arachidonic acid substrate was added, and the tubes were incubated at 37 °C for 2 min. The compound immunochemical assay was used to calculate the amount of prostaglandin produced. Three separate experiments were used to calculate the IC50 values. The selectivity index was calculated as follows:(1) Selectivity index=IC50COX−1/IC50COX−2

The subject of series [5] is Raw264.7 cells. Kind of series: In vitro cytotoxicity, WST-1 assay. In kind it is cell-based, mouse. Particulars: 1 µM, 24 h, presence or absence of LPS (1 ug/mL). The method, then: Raw264.7 cells were used to test the effects of compounds 1, 2, and 3 on cell viability and proliferation. Raw264.7 cells were treated for 24 h in a 96-well plate with compounds (1 µM) in the presence or absence of LPS (1 ug/mL). WST1 reagent was added to each well after treatment and incubated for an additional 2 h. Following that, the OD450/620 ratio was determined. […] However, all compounds had no effect on WST1 values or cell morphology in Raw264.7 cells. Raw264.7 cells in a 96-well plate were treated with our compounds (1 uM) in the presence or absence of LPS (1 ug/mL) for 24 h. After treatment, the WST1 reagent was added into each well and incubated for an additional 2 h. After that, OD450/620 was measured.
Dulbecco’s modified Eagle’s minimum essential medium containing 5% heat-inactivated fetal bovine serum was used to maintain Raw264.7 cells (ATCC). Raw264.7 cells ([…]) in a 96-well plate were treated for 24 h with the indicated compounds at 1 µM or vehicle (DMSO) in the presence or absence of LPS (1 µg/mL) to detect cell viability based on mitochondrial activity. WST-1 solution (Dojindo) was then added to each well and incubated at 37 °C for an additional 2 h. According to a previous study, cell viability was determined using the difference in absorbance at 450 and 620 nm as an indicator [37].

Values joined by “and” are separate entries in the source; they are usually repeats but may differ in a detail not shown here. Identical values can stand only once.

Take `COc1ccc2c(c1)c(CC(=O)O)c(C)n2C(=O)c1ccc(Cl)cc1` [Indomethacin, reference compound]: the rat paw edema entry in series [1] is reported as “dramatically reduced rat paw edema”. Further, in series [2] (10× magnification), the “rat paw collagen deposition, Masson's Trichrome stain” value is “slight collagen deposition”. Besides, the “rat paw histopathology, H&E” value is “significant decrease in the degree of inflammatory reaction (black star) and a moderate decrease in edema” in series [2] (10× magnification); “slight inflammatory reaction (black star) and edema” in series [2] (40× magnification). The “rat stomach collagen deposition, Masson's Trichrome” value (“rat stomach collagen deposition” below) is reported as “mild increase in collagen deposition” in series [3], “significant collagen deposition” in series [3] (10× magnification) and “collagen deposition” in series [3] (40× magnification). The figures for the “rat stomach histopathology, H&E” value in series [3] (10× magnification) and in series [3] (40× magnification) were “slight degeneration of gastric layers” and “absence of any signs of an inflammatory reaction”, respectively.
On to `O=C(O)Cc1ccccc1Nc1c(Cl)cccc1Cl` [Diclofenac, reference compound], for which, in series [1], the rat paw edema entry is “dramatically reduced rat paw edema”.
Turning to `COc1ccc(CN(Cc2ccc(F)cc2)CC2CCCO2)cc1CO` (stereo not drawn) [Compound 4], in series [4], the “SI (selectivity index = IC50 COX-1/IC50 COX-2)” value was found to be 36.3 and the IC50 was determined as 210 ± 10 nM.
In the same order, the values of `O=C(O)CC1COCCN1Cc1cccc(-c2ccccn2)c1` (stereo not drawn) [Compound 6] are 190.88 and 60 ± 75 nM.
Consider `Cc1cccc2[nH]c(C3CCCN(C(=O)c4ccccc4NCC(=O)O)C3)nc12` (stereo not drawn) [Compound 1, [(2-{[3-(4-methyl-1H-benzimidazol-2-yl)piperidin-1-yl]carbonyl}phenyl)amino]acetic acid], for which the “rat paw edema size” value in series [1] is on record as “significantly reduced rat paw size”. The “effect on WST1 values (cell viability) and cell morphology” value in series [5] was “non-cytotoxic”. The “rat paw histopathology, H&E: edema and inflammatory cell infiltration” value in series [2] is “marked improvement in the degree of edema and the inflammatory cell infiltration”. Further, in series [2] (10× magnification), the “rat paw collagen deposition, Masson's Trichrome stain” value is listed as “slight collagen deposition”; the “rat paw histopathology, H&E” value is “significant decrease in the dermal thickness, inflammatory reaction in the deep dermis (black star), and moderate improvements in edema”. For the same molecule, in series [2] (40× magnification), the “rat paw histopathology, H&E” value is “slight inflammatory reaction (black star) and edema”. In series [3] (10× magnification), the “rat stomach collagen deposition” value is “normal collagen deposition” and the “rat stomach histopathology, H&E” value is listed as “normal gastric layers”. For the same molecule, in series [3] (40× magnification), the “rat stomach collagen deposition” value is given as “normal collagen deposition” and the “rat stomach histopathology, H&E” value is recorded as “absence of any signs of an inflammatory reaction”.
In the case of `CCOC(=O)c1cn(-c2cc(C#N)ccc2O)cc(Oc2ccccc2)c1=O` [Compound 2, ethyl 1-(5-cyano-2-hydroxyphenyl)-4-oxo-5-phenoxy-1,4-dihydropyridine-3-carboxylate], in series [1], the “rat paw edema size” value is recorded as “significantly reduced rat paw size”. Also, the “effect on WST1 values (cell viability) and cell morphology” value in series [5] is reported as “non-cytotoxic”. For the same molecule, in series [2], the “rat paw collagen deposition, Masson's stain” value is recorded as “lowest”; the “rat paw histopathology, H&E: edema and inflammatory cell infiltration” value was “marked anti-inflammatory effect and a pronounced decline in edema and inflammatory cell invasion”. In addition, in series [2] (10× magnification), the “rat paw collagen deposition, Masson's Trichrome stain” value is on record as “slight collagen deposition”; the “rat paw histopathology, H&E” value is “substantial decrease in both the inflammatory reaction (black star) and edema”. Besides, in series [2] (40× magnification), the “rat paw histopathology, H&E” value was “slight inflammatory reaction (black star) and edema”. Further, in series [3] (10× magnification), the “rat stomach collagen deposition” value was “slight collagen deposition” and the “rat stomach histopathology, H&E” value is “normal gastric layers”. In addition, in series [3] (40× magnification), the “rat stomach collagen deposition” value is given as “slight collagen deposition” and the “rat stomach histopathology, H&E” value was “absence of any signs of an inflammatory reaction”.
`COc1cccc(-c2nn(-c3ccccc3)cc2CN(C)CCc2cn[nH]c2)c1` [Compound 5]: in series [4], the “SI (selectivity index = IC50 COX-1/IC50 COX-2)” value is listed as 132.64 and the IC50 was found to be 80 ± 9 nM.
In the same order, the values of `O=C(O)COc1ccc(Cl)cc1C1CC(=O)Nc2cc3[nH]ncc3cc21` (stereo not drawn) [Compound 7] are 95.068 and 97 ± 15 nM.
On to `O=C(O)[C@H]1C[C@@H](C(=O)NC2CC2)CN(C(=O)c2ccc3[nH]nnc3c2)C1` [Compound 3], for which, in series [4], the “SI (selectivity index = IC50 COX-1/IC50 COX-2)” value is 194.9 and 194.91; the IC50 amounted to 60 ± 3 nM. The “rat paw edema size” value in series [1] is “significantly reduced rat paw size”. Moreover, the “rat paw histopathology, H&E: edema and inflammatory cell infiltration” value in series [2] was “weaker action than compounds 1 and 2 manifested by a moderate increase in cell infiltration and edema”. Besides, in series [2] (10× magnification), the “rat paw collagen deposition, Masson's Trichrome stain” value is reported as “significant collagen deposition”; the “rat paw histopathology, H&E” value is “significant decrease in the degree of inflammatory reaction (black star) and a moderate decrease in edema”. The “rat paw histopathology, H&E” value in series [2] (40× magnification) is “moderate inflammatory reaction (black star) and edema”. Besides, the “rat stomach collagen deposition” value in series [3] was “mild increase in collagen deposition”. In series [3] (10× magnification), the “rat stomach collagen deposition” value was “significant collagen deposition” and the “rat stomach histopathology, H&E” value is recorded as “slight degeneration of gastric layers”. In addition, in series [3] (40× magnification), the “rat stomach collagen deposition” value is “significant collagen deposition” and the “rat stomach histopathology, H&E” value is given as “absence of any signs of an inflammatory reaction”.

Values taken from article PMC8955829, “Drug Discovery of New Anti-Inflammatory Compounds by Targeting Cyclooxygenases” (Pharmaceuticals, 2022).
